The target of one data set is T1, aldose reductase (Sus scrofa, UniProt P80276).
T1 construct: swine lenses freeze-stored at -80°C were homogenized with distilled water and centrifuged at 10,000 G for 15 minutes; from tissue; host or cells: swine lens
Briefly: Aldose reductase inhibitory action (method of S. Hayman et al., absorbance change at 340 nm). It counts as biochemical. Conditions: swine lens enzyme, 3 mM dl-glyceraldehyde, 0.1 mM NADPH, pH 6.2, 25°C. The method, then:
An aldose reductase enzyme standard product was prepared from swine lens according to the method of S. Hayman et al. [Journal of Biological Chemistry, 240, 877-882 (1965)]. That is, swine lenses freeze-stored at -80°C were homogenized with distilled water and centrifuged at 10,000 G for 15 minutes. The supernatant was prepared into a 40% ammonium sulfate solution and subjected to centrifugation at 10,000 G for 10 minutes. The supernatant obtained was dialyzed overnight against a 0.05 M sodium chloride solution to give a dialyzed solution, which was used as an enzyme standard product.
The activity of aldose reductase was determined by the above-mentioned method of S. Hayman et al. That is, the above-mentioned enzyme solution (25 µl) and a drug solution (25 µl) dissolved in 1% DMSO at various concentrations were added to a 40 mM phosphate buffer (200 µl, pH 6.2) containing, at final concentrations, 0.4 M lithium sulfate, 0.1 mM NADPH (reduced type nicotinamide adenine dinucleotide phosphate) and 3 mM dl-glyceraldehyde as a substrate. The mixture was allowed to react at 25°C for 2 minutes and the changes in absorbance at 340 nm were determined with COBAS FARA II (manufactured by Roche). The changes in absorbance when 1% DMSO was added instead of the drug solution was taken as 100%, based on which 50% inhibition concentration (IC50) was calculated and shown in Table 1. […] The test drug number indicates the example number to be mentioned later. IC50 (M) means the concentration of the drug at which the aldose reductase activity is inhibited by 50% Table 1

Another data set concerns ICR mice. Briefly: Acute toxicity after a single oral dose in mice. It counts as in vivo. As to conditions: 300 mg/kg orally, male ICR mice, observation for 14 days. The method, then: Normal ICR mice (male, 7 weeks old, 5 per group) were fasted for 18 hours and the compound (300 mg/kg) of Example 33 was orally administered as a 0.5% carboxymethylcellulose suspension. To the control group, a 0.5% carboxymethylcellulose solution alone was orally administered, and observation was continued for 14 days thereafter, during which period the mice were allowed to take feed and water freely.

Data set [1] has as its system sorbitol accumulation in tissues. Nature of the data set: Inhibitory action on sorbitol accumulation in tissues of rats with experimental (streptozotocin) diabetes. It counts as in vivo, Sprague-Dawley rats. Conditions: measured 3 hours after final administration, control taken as 100%; for Sorbitol accumulation (%) nerve: sciatic nerve. The method, then:
Sprague-Dawley rats (male, 6 weeks old, 5-6 per group) were fasted for 18 hours and injected with streptozotocin (SIGMA, 60 mg/kg) via the tail vein under etherization to prepare rats with diabetes.
The various compounds were orally administered at 4, 8 and 24 hours after the injection of streptozotocin, at 10 mg/kg or 30 mg/kg as a 0.5% carboxymethylcellulose suspension. During the administrations, the rats were raised under free access to feed and water, and the sorbitol content of the tissues (erythrocytes, sciatic nerve, lens) was determined 3 hours after the final administration, according to the enzyme method of H.Y. Bergmeyer et al. [Methods of Enzymatic Analysis, vol. 3, 1323-1330 (1974)] with the use of SDH (sorbitol dehydrogenase) and NAD (β-nicotinamide adenine dinucleotide). The results (sorbitol accumulation) are expressed in percent (%) relative to the value of a control group administered with 0.5% carboxymethylcellulose solution (solvent) instead of the drug, which was taken as 100%.

The mark [2] stands for this setting: 10 mg/kg orally at 4, 8 and 24 hours after streptozotocin.
The mark [3] stands for this setting: 30 mg/kg orally at 4, 8 and 24 hours after streptozotocin.

The structures appear in SMILES notation. Marks after values point to notes of the source that are not given here.

Regarding `O=C(O)CC1Oc2ccccc2N(Cc2nc3cc(Cl)ccc3s2)C1=O` (stereo not drawn) [Example 25, 2-[4-(5-chlorobenzothiazol-2-yl)methyl-3,4-dihydro-3-oxo-2H-1,4-benzoxazin-2-yl]acetic acid], the IC50 on aldose reductase came out at 8.6 nM.
As for `O=C(O)CC1Oc2ccccc2N(Cc2nc3ccc(F)c(F)c3s2)C1=O` (stereo not drawn) [Example 33, 2-[4-(6,7-difluorobenzothiazol-2-yl)methyl-3,4-dihydro-3-oxo-2H-1,4-benzoxazin-2-yl]acetic acid], the death result in the data set with ICR mice is “no case of death”. Also, the weights entry with ICR mice (compared with control group) was “showed transition in the same manner as in the control group”.
For `O=C(O)CC1Oc2cc(F)ccc2N(Cc2nc3c(F)c(F)cc(F)c3s2)C1=O` (stereo not drawn) [Example 44, 2-[7-fluoro-4-(4,5,7-trifluorobenzothiazol-2-yl)methyl-3,4-dihydro-3-oxo-2H-1,4-benzoxazin-2-yl]acetic acid], in data set [1] (setting [2]), the “Sorbitol accumulation (%) erythrocytes” value is reported as 25.9** %, the “Sorbitol accumulation (%) lens” value was 52.0** % and the “Sorbitol accumulation (%) nerve” value was 4.7 ** %.
In turn, `O=C(O)CC1Oc2ccc(Cl)cc2N(Cc2nc3c(F)c(F)ccc3s2)C1=O` (stereo not drawn) [Example 39, 2-[6-chloro-4-(4,5-difluorobenzothiazol-2-yl)methyl-3,4-dihydro-3-oxo-2H-1,4-benzoxazin-2-yl]acetic acid] returned an IC50 at aldose reductase of 9.9 nM.
With `O=C(O)CC1Oc2ccc(Cl)cc2N(Cc2nc3c(F)c(F)cc(F)c3s2)C1=O` (stereo not drawn) [Example 38, 2-[6-chloro-4-(4,5,7-trifluorobenzothiazol-2-yl)methyl-3,4-dihydro-3-oxo-2H-1,4-benzoxazin-2-yl]acetic acid], in data set [1] (setting [2]), the “Sorbitol accumulation (%) erythrocytes” value was 24.6** %, the “Sorbitol accumulation (%) lens” value is given as 44.1** % and the “Sorbitol accumulation (%) nerve” value is listed as 0.0** %.
On aldose reductase, `O=C(O)CC1Oc2ccc(F)cc2N(Cc2nc3c(F)c(F)ccc3s2)C1=O` (stereo not drawn) [Example 26, 2-[6-fluoro-4-(4,5-difluorobenzothiazol-2-yl)methyl-3,4-dihydro-3-oxo-2H-1,4-benzoxazin-2-yl]acetic acid] returned an IC50 of 9.6 nM. In other words, the single-digit nanomolar range.
With `O=C(O)CC1Oc2cc(F)ccc2N(Cc2nc3c(F)c(F)ccc3s2)C1=O` (stereo not drawn) [Example 45, 2-[7-fluoro-4-(4,5-difluorobenzothiazol-2-yl)methyl-3,4-dihydro-3-oxo-2H-1,4-benzoxazin-2-yl]acetic acid], in data set [1] (setting [2]), the “Sorbitol accumulation (%) erythrocytes” value is reported as 32.4** %, the “Sorbitol accumulation (%) lens” value is 71.8* % and the “Sorbitol accumulation (%) nerve” value was 56.8** %.
As for `O=C(O)CC1Oc2ccc(F)cc2N(Cc2nc3c(Cl)c(Cl)ccc3s2)C1=O` (stereo not drawn) [Example 28, 2-[4-(4,5-dichlorobenzothiazol-2-yl)methyl-6-fluoro-3,4-dihydro-3-oxo-2H-1,4-benzoxazin-2-yl]acetic acid], in data set [1] (setting [2]), the “Sorbitol accumulation (%) erythrocytes” value is 16.3** %, the “Sorbitol accumulation (%) lens” value is on record as 89.3% and the “Sorbitol accumulation (%) nerve” value is 56.0** %.
Turning to `O=C(O)CC1Oc2ccccc2N(Cc2nc3c(Cl)c(Cl)ccc3s2)C1=O` (stereo not drawn) [Example 34, 2-[4-(4,5-dichlorobenzothiazol-2-yl)methyl-3,4-dihydro-3-oxo-2H-1,4-benzoxazin-2-yl]acetic acid], inhibition against aldose reductase was half-maximal at 9.9 nM (IC50).
Same read-out and setting: to `O=C(O)CC1Oc2ccc(F)cc2N(Cc2nc3cc(F)cc(F)c3s2)C1=O` (stereo not drawn) [Example 27, 2-[6-fluoro-4-(5,7-difluorobenzothiazol-2-yl)methyl-3,4-dihydro-3-oxo-2H-1,4-benzoxazin-2-yl]acetic acid] belongs 9.9 nM.
`O=C(O)CC1Oc2ccccc2N(Cc2nc3cc(F)cc(F)c3s2)C1=O` (stereo not drawn) [Example 32, 2-[4-(5,7-difluorobenzothiazol-2-yl)methyl-3,4-dihydro-3-oxo-2H-1,4-benzoxazin-2-yl]acetic acid]: in data set [1] (setting [2]), the “Sorbitol accumulation (%) erythrocytes” value is recorded as 27.2** %, the “Sorbitol accumulation (%) lens” value is 39.1** % and the “Sorbitol accumulation (%) nerve” value was 11.4** %.
Regarding `Cc1ccc2c(c1)N(Cc1nc3c(F)c(F)ccc3s1)C(=O)C(CC(=O)O)O2` (stereo not drawn) [Example 36, 2-[4-(4,5-difluorobenzothiazol-2-yl)methyl-6-methyl-3,4-dihydro-3-oxo-2H-1,4-benzoxazin-2-yl]acetic acid], in data set [1] (setting [2]), the “Sorbitol accumulation (%) erythrocytes” value is on record as 17.3** %, the “Sorbitol accumulation (%) lens” value was 60.7* % and the “Sorbitol accumulation (%) nerve” value is 23.5** %. The compound further gave an IC50 at aldose reductase of 9.2 nM.
With `CC(C)c1cccc2c1OC(C(C)C)C(=S)N2CC(=O)O` (stereo not drawn) [Compound A, 3,4-dihydro-2,8-diisopropyl-3-thioxo-2H-1,4-benzoxazine-4-acetic acid, reference compound], in data set [1] (setting [3]), the “Sorbitol accumulation (%) erythrocytes” value is 53.7* %, the “Sorbitol accumulation (%) lens” value was found to be 87.3% and the “Sorbitol accumulation (%) nerve” value is 54.9** %.
With `Cc1ccc2c(c1)N(Cc1nc3c(F)c(F)cc(F)c3s1)C(=O)C(CC(=O)O)O2` (stereo not drawn) [Example 35, 2-[4-(4,5,7-trifluorobenzothiazol-2-yl)methyl-6-methyl-3,4-dihydro-3-oxo-2H-1,4-benzoxazin-2-yl] acetic acid], at aldose reductase, half-maximal inhibition (IC50) required 9.1 nM.
On to `Cc1ccc2c(c1)OC(CC(=O)O)C(=O)N2Cc1nc2cc(F)cc(F)c2s1` (stereo not drawn) [Example 43, 2-[4-(5,7-difluorobenzothiazol-2-yl)methyl-7-methyl-3,4-dihydro-3-oxo-2H-1,4-benzoxazin-2-yl]acetic acid], for which, in data set [1] (setting [2]), the “Sorbitol accumulation (%) erythrocytes” value is recorded as 34.9** %, the “Sorbitol accumulation (%) lens” value is 100.9% and the “Sorbitol accumulation (%) nerve” value is 60.6** %.
In the case of `O=C(O)CC1Oc2ccccc2N(Cc2nc3c(F)c(F)cc(F)c3s2)C1=O` (stereo not drawn) [Example 30, 2-[4-(4,5,7-trifluorobenzothiazol-2-yl)methyl-3,4-dihydro-3-oxo-2H-1,4-benzoxazin-2-yl]acetic acid], in data set [1] (setting [2]), the “Sorbitol accumulation (%) erythrocytes” value is given as 22.2** %, the “Sorbitol accumulation (%) lens” value is reported as 45.2** % and the “Sorbitol accumulation (%) nerve” value is recorded as 1.0** %.

What is called IC50 is the concentration at which inhibition is half-maximal. Low values mean inhibition by little substance, high ones a need for much substance.

These data come from patent EP0738727B1, “1,4-BENZOXAZINE-2-ACETIC ACID COMPOUND, PROCESS FOR PRODUCING THE SAME, AND USE THEREOF” (Senju Pharmaceutical Co., Ltd., priority 1994, dated 1995).
